Test results from patent publication US4198504A, “[3-(Pyridinium)-7-(naphthyiridinyl carbonylamino)acetamido]cephalosporanic acid derivatives” (Bristol-Myers Company, priority 1978, dated 1980).
≈ marks a conversion by molar mass, not a printed value.

Legend:
[1] = tested on: E. coli (9), Klebsiella sp. (2), Pr. mirabilis (1), Sal. enteritidis (1); assay: In vitro MIC, serial two-fold agar dilution, primary evaluation Gn-I (E. coli, Klebsiella sp., Pr. mirabilis, Sal. enteritidis); assay type: cell-based; conditions: CBPC = 100%; geometric mean of MICs; Mueller-Hinton agar
How it was run: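 Two-fold serial agar dilution on Mueller-Hinton agar, inoculated with a Steers' replicator. Activity is expressed relative to carbenicillin set at 100%. Values are based on the geometric mean MIC per organism group.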

[2] = tested on: Staphylococcus aureus Smith; assay: In vivo efficacy, experimental infection in mice, intramuscular treatment, Staphylococcus aureus Smith; design: species or system Staphylococcus aureus (infected mice); conditions: im, 120 h, I.M., 100×LD50 challenge i.p., 5 days, read-out: PD50 Staphylococcus aureus Smith
Method: (§1) The in vivo efficacy was evaluated by intramuscular treatment against three kinds of experimental infection in mice.
(§2) The in vivo tests were carried out using the following three pathogenic organisms:
Staphylococcus aureus Smith
(§3) Mice were challenged intraperitoneally with approximately a 100×LD50 dose of the pathogens in a 5% mucin suspension. The mice were treated with test compound by I.M. route immediately after the bacterial challenge.

Solubility in water = assay type: physicochemical; conditions: lyophilized product, read-out: dissolved readily in water to give a solution
Method: This unfortunate characteristic renders them unsuitable for use by intravenous administration. Acceptable solubility for such use is at least 125 mgm./ml. so that 250 mgm. can be administered in 2 ml. of sterile solution. Suspensions cannot, of course, be administered intravenously. […] The latter would make possible a dosage of 500 mgm. in a 2 ml. vial.
To a mixture of nicotinic acid (492 mg., 4 m.moles) and NaHCO3 (336 mg., 4 m.moles) in 2 ml. of water were added sodium 7-[D-α-(4-hydroxy-1,5-naphthyridine-3-carboxamido)-α-phenylacetamido]cephalosporanate^(3), (600 mg., 1 m.mole) and KSCN (2.4 g., 25 m.moles) and the mixture was allowed to stand overnight at 50°-52° C. The reaction mixture was placed on the top of an HP-20 column (.phi. 10 mm., 90 ml.). The column was developed with 1 L each of water, 30% aqueous MeOH and 50% aqueous MeOH. The eluate was collected in 20-ml. fractions, monitoring with tlc (silica-gel plate, CH3 CN:H2 O=4:1, detected with I2). The desired product was found in the fractions eluted with 30% aqueous MeOH, which were combined and concentrated under reduced pressure. The concentrates showing a neutral pH were lyophilized to give 105 mg. (16%) of BB-S606, which dissolved readily in water to give a 25% (w/v) solution. It started to melt around 280° C. with gradual decomposition.

[3] = tested on: Ent. cloacae (3), Pr. vulgaris (1), Pr. morganii (1), S. marcescen (1); assay: In vitro MIC, serial two-fold agar dilution, primary evaluation Gn-II (Ent. cloacae, Pr. vulgaris, Pr. morganii, S. marcescens); assay type: cell-based; conditions: CBPC = 100%; geometric mean of MICs; Mueller-Hinton agar
How it was run: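 MICs by two-fold serial agar dilution on Mueller-Hinton agar with a Steers replicator. Reported as activity relative to carbenicillin set at 100%, computed from geometric mean MICs over the strains in each group.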

Pseudomonas aeruginosa = assay: In vitro MIC, serial two-fold agar dilution, secondary evaluation against Pseudomonas aeruginosa strains; assay type: cell-based; conditions: CBPC = 100%; geometric mean of MICs; 61-64 strains
How it was run: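 Two-fold serial agar dilution on Mueller-Hinton agar (Steers' apparatus) against 64 P. aeruginosa strains. Values are relative activity versus carbenicillin set at 100%, based on geometric mean MICs.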

S. aureus = assay: In vitro MIC, serial two-fold agar dilution, primary evaluation Gp (S. aureus, 6 strains); assay type: cell-based; conditions: CBPC = 100%; geometric mean of MICs; Mueller-Hinton agar
How it was run: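 Two-fold serial agar dilution on Mueller-Hinton agar (Steers' replicator); GP group is 6 S. aureus strains. Values are relative activity versus carbenicillin (set at 100%), calculated from the geometric mean of the group's MICs.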

[4] = tested on: Pseudomonas aeruginosa A9843; assay: In vivo efficacy, experimental infection in mice, intramuscular treatment, Pseudomonas aeruginosa A9843; design: species or system Pseudomonas aeruginosa (infected mice); conditions: A9843, im, 120 h, I.M., 100×LD50 challenge i.p., 5 days, read-out: PD50 Pseudomonas aeruginosa A9843
Method: as §1, §2
Pseudomonas aeruginosa A9843
as §3

Ps. aeruginosa = assay: In vitro MIC, serial two-fold agar dilution, primary evaluation Ps (6 strains); assay type: cell-based; conditions: CBPC = 100%; geometric mean of MICs; Mueller-Hinton agar
How it was run: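 MIC by serial two-fold agar dilution on Mueller-Hinton agar (Steers' apparatus) against 6 Pseudomonas aeruginosa strains in primary screening. Values expressed as relative activity versus carbenicillin set at 100%, based on geometric mean MIC.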

[5] = Antibiotic blood levels in mice following intramuscular administration (paper disc-agar diffusion, Escherichia coli NIHJ as assay organism); assay type: in vivo; conditions: mouse, im, I.M., 20 mg./kg.
Method: Antibiotic blood levels were determined in mice following intramuscular administration of the test compounds at 20 mg./kg. The blood samples were collected from the orbital sinuses into heparinized capillary tubes at 15, 30, 60 and 120 minutes after administration. The antibiotic concentration was determined by the paper disc-agar diffusion method using Escherichia coli NIHJ as the assay organism.

## O=C([O-])C1=C(C[n+]2cccc(C(=O)O)c2)CSC2C(NC(=O)[C@H](NC(=O)c3cnc4cccnc4c3O)c3ccccc3)C(=O)N12 (stereo partly drawn) [BB-S606, 7-[D-α-(4-Hydroxy-1,5-naphthyridine-3-carboxamido)-α-phenyl-acetamido]-3-(3-carboxypyridinium)methyl-3-cephem-4-carboxylate]
[1]
  In vitro relative activity, primary evaluation Gn-I (13): 16%
[2]
  ED50: 4.2 mg/kg
Solubility in water
  solubility: 250 mg/mL (≈ 390 mM)
[3]
  In vitro relative activity, primary evaluation Gn-II (6): 11%
Pseudomonas aeruginosa
  In vitro relative activity, secondary, Pseudomonas aeruginosa (61-64): 624%
S. aureus
  In vitro relative activity, primary evaluation Gp (6): 45%
[4]
  ED50: 25 mg/kg
Ps. aeruginosa
  In vitro relative activity, primary evaluation Ps (6): 656%
[5]; read-out: Blood level, Half-life
  half-life: 55 min
[5]; read-out: Blood level, Peak Concentration
  Cmax: 11000 ng/mL
